This passage reports IC50 results from patent US6881741B2 (ViroChem Pharma Inc., priority 2001, dated 2005).

Molecules are shown by their SMILES.

The target in one test is recombinant HCV NS5B (HCV RNA-dependent RNA polymerase) (Hepatitis C virus genotype 1b, UniProt P26663). Kind of test: biochemical. The following applies: HCV polymerase activity, list of compounds of Example 27; read-out: IC50 (polymerase activity).
recombinant HCV NS5B (HCV RNA-dependent RNA polymerase), sequence (P26663 2420-3010 limits assumed): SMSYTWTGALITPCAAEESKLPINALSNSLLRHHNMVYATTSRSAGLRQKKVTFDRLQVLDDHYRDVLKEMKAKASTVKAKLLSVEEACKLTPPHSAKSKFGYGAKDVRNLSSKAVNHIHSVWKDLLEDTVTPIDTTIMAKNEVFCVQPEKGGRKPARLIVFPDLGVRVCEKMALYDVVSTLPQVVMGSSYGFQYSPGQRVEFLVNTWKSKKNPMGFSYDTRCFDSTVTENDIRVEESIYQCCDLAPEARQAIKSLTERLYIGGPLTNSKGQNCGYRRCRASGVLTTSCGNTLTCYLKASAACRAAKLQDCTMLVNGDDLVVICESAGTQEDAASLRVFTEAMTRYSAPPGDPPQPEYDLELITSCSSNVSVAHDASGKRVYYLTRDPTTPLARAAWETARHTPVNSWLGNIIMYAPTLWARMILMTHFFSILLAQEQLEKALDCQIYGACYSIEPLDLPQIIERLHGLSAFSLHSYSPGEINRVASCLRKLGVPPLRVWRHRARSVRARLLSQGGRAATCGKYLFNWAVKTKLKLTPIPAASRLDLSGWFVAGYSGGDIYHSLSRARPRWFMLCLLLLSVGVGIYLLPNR
In general, IC50 refers to the concentration at which inhibition is half-maximal. Regarding `CC(C)CC(=O)N(Cc1ccccc1Cl)c1cc(-c2ccccc2)sc1C(=O)O` [Compound 422, 3-[(2-CHLORO-BENZYL)-(3-METHYL- BUTYRYL)-AMINO]-5-PHENYL- THIOPHENE-2-CARBOXYLIC ACID], the IC50 fell in the range of 5 to 20 µM.
Consider `CC(COCc1ccccc1)N(C(=O)c1ccc(Cl)cc1Cl)c1cc(-c2ccccc2)sc1C(=O)O` (stereo not shown) [Compound 516, 3-[(2-BENZYLOXY-1-METHYL-ETHYL)- (2,4-DICHLORO-BENZOYL)-AMINO]-5- PHENYL-THIOPHENE-2-CARBOXYLIC ACID], for which the IC50 was < 5 µM.
The same measure, in the same setting: to `O=C(O)c1sc(-c2ccccc2)cc1N(Cc1ccc(C(F)(F)F)cc1)C(=O)C1CCC1` [Compound 414, 3-[CYCLOBUTANECARBONYL-(4- TRIFLUOROMETHYL-BENZYL)-AMINO]-5- PHENYL-THIOPHENE-2-CARBOXYLIC ACID] belongs 5 to 20 µM; to `Cc1ccc(CN(C(=O)C2CC2)c2cc(-c3ccccc3)sc2C(=O)O)cc1` [Compound 469, 3-[CYCLOPROPANECARBONYL-(4- METHYL-BENZYL)-AMINO]-5-PHENYL- THIOPHENE-2-CARBOXYLIC ACID], 5 to 20 µM; to `O=C(O)c1sc(-c2ccccc2)cc1N(C(=O)c1ccc(Cl)cc1Cl)C1CCNC1` (stereo not shown) [Compound 503, 3-[(2,4-DICHLORO-BENZOYL)- PYRROLIDIN-3-YL-AMINO]-5-PHENYL- THIOPHENE-2-CARBOXYLIC ACID], 5 to 20 µM.
With `CC(C)N(C(=O)c1ccc(Cl)cc1Cl)c1cc(-c2nccs2)sc1C(=O)O` [Compound 449, 3-[(2,4-DICHLORO-BENZOYL)- ISOPROPYL-AMINO]-5-THIAZOL-2-YL- THIOPHENE-2-CARBOXYLIC ACID], the IC50 was < 5 µM.
Regarding `CC(C)N(C(=O)C1CCC(Cl)CC1)c1cc(-c2ccccc2)sc1C(=O)O` (stereo not shown) [Compound 532, 3-[(4-CHLORO- CYCLOHEXANECARBONYL)-ISOPROPYL- AMINO]-5-PHENYL-THIOPHENE-2- CARBOXYLIC ACID], the IC50 was < 5 µM.
On to `CC(C)N(c1cc(-c2ccccc2)sc1C(=O)O)C(=O)[C@]1(C)CC[C@@H](C)CC1` [Compound 500, 3-[(1,4-DIMETHYL- CYCLOHEXANECARBONYL)-ISOPROPYL- AMINO]-5-PHENYL-THIOPHENE-2- CARBOXYLIC ACID], for which the IC50 was < 5 µM.
As to `CC1CCC(C(=O)N(c2cc(-c3ccccc3)sc2C(=O)O)C(C)C)C(C)C1` (stereo not shown) [Compound 407, 3-[(2,4-DIMETHYL- CYCLOHEXANECARBONYL)-ISOPROPYL- AMINO]-5-PHENYL-THIOPHENE-2- CARBOXYLIC ACID], the half-inhibitory concentration (IC50) is < 5 µM.
Consider `C=CCN(C(=O)CCCC)c1cc(-c2ccccc2)sc1C(=O)O` [Compound 399, 3-(ALLYL-PENTANOYL-AMINO)-5- PHENYL-THIOPHENE-2-CARBOXYLIC ACID], for which the IC50 lay within 5 to 20 µM.
With `COc1ccc(-c2cc(N(C(=O)C3CCC(C)CC3)C(C)C)c(C(=O)O)s2)cc1` (stereo not shown) [Compound 577, 3-[ISOPROPYL-(4-METHYL- CYCLOHEXANECARBONYL)-AMINO]-5-(4- METHOXY-PHENYL)-THIOPHENE-2- CARBOXYLIC ACID], the half-maximal inhibitory concentration (IC50) was < 5 µM.
On the same count and under the same terms, to `CO[C@H]1CCCCC1N(C(=O)c1ccc(Cl)cc1Cl)c1cc(-c2ccccc2)sc1C(=O)O` (stereo partly shown) [Compound 534, 3-[(2-DICHLORO-BENZOYL)-(2- METHOXY-CYCLOHEXYL)-AMINO]-5- PHENYL-THIOPHENE-2- CARBOXYLIC ACID] belongs < 5 µM.
As to `O=C(O)c1sc(-c2ccccc2)cc1N(Cc1ccccc1Cl)C(=O)C1CC1` [Compound 423, 3-[(2-CHLORO-BENZYL)- CYCLOPROPANECARBONYL-AMINO]-5- PHENYL-THIOPHENE-2-CARBOXYLIC ACID], the IC50 is > 20 µM.
Same read-out and setting: to `CCCC1CCC(C(=O)N(c2cc(-c3ccccc3)sc2C(=O)O)C(C)C)CC1` (stereo not shown) [Compound 527, 3-[ISOPROPYL-(4-PROPYL- CYCLOHEXANECARBONYL)-AMINO]-5- PHENYL-THIOPHENE-2-CARBOXYLIC ACID] belongs < 5 µM; to `CCc1ccc(-c2cc(N(C(=O)c3ccc(C)cc3O)C(C)C)c(C(=O)O)s2)cc1` [Compound 501, 5-(4-ETHYL-PHENYL)-3-[(2-HYDROXY-4- METHYL-BENZOYL)-ISOPROPYL-AMINO]- THIOPHENE-2-CARBOXYLIC ACID], < 5 µM.
Regarding `O=C(O)c1sc(-c2ccccc2)cc1N(Cc1ccc([N+](=O)[O-])cc1)C(=O)CC1CCCC1` [Compound 443, 3-[(2-CYCLOPENTYL-ACETYL)-(4-NITRO- BENZYL)-AMINO]-5-PHENYL-THIOPHENE- 2-CARBOXYLIC ACID], the IC50 is < 5 µM.
As for `CCCC(=O)N(CC)c1cc(-c2ccccc2)sc1C(=O)O` [Compound 493, 3-(BUTYRYL-ETHYL-AMINO)-5-PHENYL- THIOPHENE-2-CARBOXYLIC ACID], the IC50 lay within 5 to 20 µM.
In the case of `Cc1ccccc1CN(C(=O)C1CCC1)c1cc(-c2ccccc2)sc1C(=O)O` [Compound 432, 3-[CYCLOBUTANECARBONYL-(2- METHYL-BENZYL)-AMINO]-5-PHENYL- THIOPHENE-2-CARBOXYLIC ACID], the concentration for half-maximal inhibition (IC50) lay in the range of 5 to 20 µM.

Staying with this test, now noted: related polymerase activity (Example 27 list); read-out: IC50.
Consider `Cc1ccc(C(=O)N(Cc2ccccc2Cl)c2cc(-c3ccccc3)sc2C(=O)O)cc1` [Compound 345, 3-[(2-CHLORO-BENZYL)-(4-METHYL- BENZOYL)-AMINO]-5-PHENYL- THIOPHENE-2-CARBOXYLIC ACID], for which the IC50 was < 5 µM.
On to `O=C(O)c1sc(-c2ccccc2)cc1NS(=O)(=O)c1ccc([N+](=O)[O-])cc1` [Compound 148, 3-(4-NITRO-BENZENESULFONYLAMINO)-5-PHENYL-THIOPHENE-2-CARBOXYLIC ACID], for which the IC50 fell in the range of 5 to 20 µM.
For `CCOC(=O)c1c(C)c(S(=O)(=O)Nc2cc(-c3ccccc3)sc2C(=O)O)c(-c2ccc(Cl)cc2)n1-c1ccccc1` [Compound 168, 4-(2-CARBOXY-5-PHENYL-THIOPHEN-3-YLSULFAMOYL)-5-(4-CHLORO-PHENYL)-3-METHYL-1-PHENYL-1H-PYRROLE-2-CARBOXYLIC ACID ETHYL ESTER], the IC50 lay in the range of 5 to 20 µM.
Consider `CC(=O)c1cc(-c2cc(NS(=O)(=O)c3ccc(C)cc3C)c(C(=O)O)s2)cs1` [Compound 367, 5′-ACETYL-4-(2,4-DIMETHYL- BENZENESULFONYLAMINO)- [2,3′]BITHIOPHENYL-5-CARBOXYLIC ACID], for which the IC50 is < 5 µM.
Regarding `Cc1cc(S(=O)(=O)Nc2cc(-c3ccccc3)sc2C(=O)O)c(C)cc1Cl` [Compound 3, 3-(4-CHLORO-2,5-DIMETHYL-BENZENESULFONYLAMINO)-5-PHENYL-THIOPHENE-2-CARBOXYLIC ACID], the IC50 was 5 to 20 µM.
On to `Cc1ccc(C(=O)N(C)c2cc(-c3cccc(N)c3)sc2C(=O)O)cc1` [Compound 271, 5-(3-AMINO-PHENYL)-3-[METHYL-(4-METHYL-BENZOYL)-AMINO]-THIOPHENE-2-CARBOXYLIC ACID], for which the IC50 is 5 to 20 µM.
Same read-out and setting: in the case of `CN(C(=O)c1ccc(Cl)cc1)c1cc(-c2ccccc2)sc1C(=O)O` [Compound 73, 3-[(4-CHLORO-BENZOYL)-METHYL-AMINO]-5-PHENYL-THIOPHENE-2-CARBOXYLIC ACID] it was < 5 µM.
The same measure, in the same setting: to `CC(=O)c1ccc(-c2cc(NS(=O)(=O)c3ccc(C)cc3C)c(C(=O)O)s2)cc1` [Compound 236, 5-(4-ACETYL-PHENYL)-3-(2,4-DIMETHYL-BENZENESULFONYLAMINO)-THIOPHENE-2-CARBOXYLIC ACID] belongs < 5 µM.
With `O=C(NCCCc1ccccc1)Nc1cc(-c2ccccc2)sc1C(=O)O` [Compound 179, 5-PHENYL-3-[3-(3-PHENYL-PROPYL)-UREIDO]-THIOPHENE-2-CARBOXYLIC ACID], the IC50 fell in the range of 5 to 20 µM.
Same read-out and setting: in the case of `O=C(O)c1sc(-c2ccccc2)cc1NS(=O)(=O)c1ccccc1CCl` [Compound 189, 3-(2-CHLOROMETHYL-BENZENESULFONYLAMINO)-5-PHENYL-THIOPHENE-2-CARBOXYLIC ACID] it was 5 to 20 µM.
Turning to `Cc1ccc(C(=O)N(C)c2cc(-c3ccccn3)sc2C(=O)O)cc1` [Compound 296, 3-[METHYL-(4-METHYL-BENZOYL)-AMINO]-5-PYRIDIN-2-YL-THIOPHENE-2-CARBOXYLIC ACID], the IC50 is 5 to 20 µM.
For the molecule `Cc1ccc(C)c(S(=O)(=O)Nc2cc(-c3ccc(F)cc3)sc2C(=O)O)c1` [Compound 107, 3-(2,5-DIMETHYL-BENZENESULFONYLAMINO)-5-(4-FLUORO-PHENYL)-THIOPHENE-2-CARBOXYLIC ACID], the half-inhibitory concentration (IC50) is < 5 µM.
With `Cc1ccccc1S(=O)(=O)Nc1cc(Cc2cccc(C#N)c2)sc1C(=O)O` [Compound 150, 5-(3-CYANO-BENZYL)-3-(TOLUENE-2-SULFONYLAMINO)-THIOPHENE-2-CARBOXYLIC ACID], the IC50 was > 20 µM.
For `CC(C)=CCN(C(=O)c1ccc(Cl)cc1Cl)c1cc(-c2ccccc2)sc1C(=O)O` [Compound 244, 3-[(2,4-DICHLORO-BENZOYL)-(3-METHYL-BUT-2-ENYL)-AMINO]-5-PHENYL-THIOPHENE-2-CARBOXYLIC ACID], the IC50 is < 5 µM.
Turning to `O=C(O)c1sc(-c2ccccc2)cc1NS(=O)(=O)c1ccc(F)cc1C(F)(F)F` [Compound 141, 3-(4-FLUORO-2-TRIFLUOROMETHYL-BENZENESULFONYLAMINO)-5-PHENYL-THIOPHENE-2-CARBOXYLIC ACID], the IC50 was in the range of 5 to 20 µM.
For the molecule `Cc1ccc(S(=O)(=O)N(c2cc(-c3ccccc3)sc2C(=O)O)C(C)C)c(C)c1` [Compound 240, 3-[(2,4-DIMETHYL-BENZENESULFONYL)-ISOPROPYL-AMINO]-5-PHENYL-THIOPHENE-2-CARBOXYLIC ACID], the IC50 is 5 to 20 µM.
As to `Cc1ccccc1S(=O)(=O)Nc1cc(-c2ccccc2)sc1C(=O)O` [Compound 15, 5-PHENYL-3-(TOLUENE-2-SULFONYLAMINO)-THIOPHENE-2-CARBOXYLIC ACID], the IC50 is > 20 µM.
Still for that read-out and setting: in the case of `CN(C(=O)c1ccc(Cl)cc1Br)c1cc(-c2ccccc2)sc1C(=O)O` [Compound 284, 3-[(2-BROMO-4-CHLORO-BENZOYL)-METHYL-AMINO]-5-PHENYL-THIOPHENE-2-CARBOXYLIC ACID] it was < 5 µM; in that of `CC(C)N(C(=O)c1ccc(Cl)nc1Cl)c1cc(-c2ccccc2)sc1C(=O)O` [Compound 250, 3-[(2,6-DICHLORO-PYRIDINE-3-CARBONYL)-ISOPROPYL-AMINO]-5-PHENYL-THIOPHENE-2-CARBOXYLIC ACID], 5 to 20 µM.
